The nature of data set [1]: Toxicity in CF1 mouse infected with asexual blood-stage (ABS) Plasmodium yoelii MRA-428 assessed as ruffled hair at 0.3 to 30 mg/kg, po treated 24 hrs post infection measured after 4 days. The class given is organism-based. Conditions: in vivo, 96 h, dose 0.3-30 mg/kg, time 4 day.
Data set [2] relates to Plasmodium falciparum. Nature of the data set: Antiplasmodial activity against asexual blood-stage (ABS) MDR Plasmodium falciparum Dd2 infected in human erythrocytes assessed as reduction in fluorescence measured after 72 hrs by Malaria SYBR Green I-based Fluorescence (MSF) assay. The data set is classed as functional, organism-based. Particulars: Dd2, Erythrocyte.
Data set [3] is described as follows: Toxicity in CF1 mouse infected with asexual blood-stage (ABS) Plasmodium yoelii MRA-428 assessed as weight loss at 0.3 to 30 mg/kg, po treated 24 hrs post infection measured after 4 days. The data set is classed as organism-based. Particulars: in vivo, 96 h, dose 0.3-30 mg/kg, time 4 day.
For data set [4] the following is noted: mouse, microsomes, 1 h.
Data set [5] can be described thus: Toxicity in CF1 mouse infected with asexual blood-stage (ABS) Plasmodium yoelii MRA-428 assessed as hyperactivity at 0.3 to 30 mg/kg, po treated 24 hrs post infection measured after 4 days. The data set is classed as organism-based. Conditions: in vivo, 96 h, dose 0.3-30 mg/kg, time 4 day.
Data set [6] relates to Plasmodium cynomolgi. In words: Antiplasmodial activity against schizont Plasmodium cynomolgi B strain infected in Macaca mulatta hepatocytes incubated with sporozoite containing salivary gland homogenate obtained from dissected Anopheles dirus mosquitoes (infected with Plasmodium cynomolgi B strain) treatment started on day 4 post infection and continued daily for 4 days into fresh changed media until day 8 assessed as Liver stage (LS) activity by measuring radical cure mode by immunofluorescent staining analysis. Particulars: Hepatocyte. The class given is functional, organism-based.

In data set [7] the test system is Plasmodium falciparum. Nature of the data set: Antiplasmodial activity against asexual blood-stage (ABS) CQ-sensitive Plasmodium falciparum D6 infected in human erythrocytes assessed as reduction in fluorescence measured after 72 hrs by Malaria SYBR Green I-based Fluorescence (MSF) assay. The data set is classed as functional, organism-based. Particulars: D6, Erythrocyte.

Data set [8] has as its system Plasmodium cynomolgi. Nature of the data set: Antiplasmodial activity against schizont Plasmodium cynomolgi B strain infected in Macaca mulatta hepatocytes incubated with sporozoite containing salivary gland homogenate obtained from dissected Anopheles dirus mosquitoes (infected with Plasmodium cynomolgi B strain) treatment started on day 4 post infection and continued daily for 4 days into fresh changed media until day 8 assessed as Liver stage (LS) activity by measuring prophylactic mode by immunofluorescent staining analysis. The class given is functional, organism-based. Particulars: Hepatocyte.

The test system of data set [9] is Plasmodium cynomolgi. In words: Antiplasmodial activity against hypnozoite Plasmodium cynomolgi B strain infected in Macaca mulatta hepatocytes incubated with sporozoite containing salivary gland homogenate obtained from dissected Anopheles dirus mosquitoes (infected with Plasmodium cynomolgi B strain) treatment started on day 4 post infection and continued daily for 4 days into fresh changed media until day 8 assessed as Liver stage (LS) activity by measuring prophylactic mode by immunofluorescent staining analysis. The data set is classed as functional, organism-based. Particulars: Hepatocyte.

A short description of data set [10]: Toxicity in CF1 mouse infected with asexual blood-stage (ABS) Plasmodium yoelii MRA-428 assessed as lethargy at 0.3 to 30 mg/kg, po treated 24 hrs post infection measured after 4 days. The class given is organism-based. Particulars: in vivo, 96 h, dose 0.3-30 mg/kg, time 4 day.
Data set [11] has as its system Plasmodium cynomolgi. Nature of the data set: Antiplasmodial activity against hypnozoite Plasmodium cynomolgi B strain infected in Macaca mulatta hepatocytes incubated with sporozoite containing salivary gland homogenate obtained from dissected Anopheles dirus mosquitoes (infected with Plasmodium cynomolgi B strain) treatment started on day 4 post infection and continued daily for 4 days into fresh changed media until day 8 assessed as Liver stage (LS) activity by measuring radical cure mode by immunofluorescent staining analysis. The data set is classed as functional, organism-based. Particulars: Hepatocyte.

The next data set has as its system Hepatocyte. In words: Cytotoxicity against Macaca mulatta hepatocytes assessed as cell viability measured after 48 hrs by MTT assay. The class given is toxicity, cell-based. Conditions: rhesus monkey, 48 h. In general terms: Formazan colour is commonly taken as a measure of viable cells.
Data set [12] has as its system Plasmodium falciparum. In words: Antiplasmodial activity against asexual blood-stage (ABS) ATV-resistant clinical isolate Plasmodium falciparum Tm90-C2B infected in human erythrocytes assessed as reduction in fluorescence measured after 72 hrs by Malaria SYBR Green I-based Fluorescence (MSF) assay. The data set is classed as functional, organism-based. Particulars: Erythrocyte.

Data set [13] in a line: Toxicity in CF1 mouse infected with asexual blood-stage (ABS) Plasmodium yoelii MRA-428 assessed as hunching at 0.3 to 30 mg/kg, po treated 24 hrs post infection measured after 4 days. The class given is organism-based. Particulars: in vivo, 96 h, dose 0.3-30 mg/kg, time 4 day.
In a further data set the test system is HepG2. Nature of the data set: Cytotoxicity against human HepG2 cells assessed as cell viability measured after 48 hrs by MTT assay. The data set is classed as functional, cell-based. Particulars: HepG2, 48 h.
Data set [14] is described as follows: Selectivity index, ratio of CC50 for Macaca mulatta hepatocytes to IC50 for antiplasmodial activity against schizont Plasmodium cynomolgi B strain infected in Macaca mulatta hepatocytes incubated with sporozoite containing salivary gland homogenate obtained from dissected Anopheles dirus mosquitoes (infected with Plasmodium cynomolgi B strain) treatment started on day 4 post infection and continued daily for 4 days into fresh changed media until day 8 assessed as Liver stage (LS) activity by measuring prophylactic mode by immunofluorescent staining analysis. Conditions: rhesus monkey, read-out: Selectivity Index. The data set is classed as toxicity, cell-based.

Data set [15] can be described thus: Selectivity index, ratio of CC50 for Macaca mulatta hepatocytes to IC50 for antiplasmodial activity against hypnozoite Plasmodium cynomolgi B strain infected in Macaca mulatta hepatocytes incubated with sporozoite containing salivary gland homogenate obtained from dissected Anopheles dirus mosquitoes (infected with Plasmodium cynomolgi B strain) treatment started on day 4 post infection and continued daily for 4 days into fresh changed media until day 8 assessed as Liver stage (LS) activity by measuring prophylactic mode by immunofluorescent staining analysis. The class given is toxicity, cell-based. Conditions: rhesus monkey, read-out: Selectivity Index.

The nature of data set [16]: Selectivity index, ratio of CC50 for Macaca mulatta hepatocytes to IC50 for antiplasmodial activity against hypnozoite Plasmodium cynomolgi B strain infected in Macaca mulatta hepatocytes incubated with sporozoite containing salivary gland homogenate obtained from dissected Anopheles dirus mosquitoes (infected with Plasmodium cynomolgi B strain) treatment started on day 4 post infection and continued daily for 4 days into fresh changed media until day 8 assessed as Liver stage (LS) activity by measuring radical cure mode by immunofluorescent staining analysis. Conditions: rhesus monkey, read-out: Selectivity Index. The data set is classed as toxicity, cell-based.

A short description of data set [17]: Selectivity index, ratio of CC50 for Macaca mulatta hepatocytes to IC50 for antiplasmodial activity against schizont Plasmodium cynomolgi B strain infected in Macaca mulatta hepatocytes incubated with sporozoite containing salivary gland homogenate obtained from dissected Anopheles dirus mosquitoes (infected with Plasmodium cynomolgi B strain) treatment started on day 4 post infection and continued daily for 4 days into fresh changed media until day 8 assessed as Liver stage (LS) activity by measuring radical cure mode by immunofluorescent staining analysis. Particulars: rhesus monkey, read-out: Selectivity Index. The data set is classed as toxicity, cell-based.

The conditions of data set [18]: human, microsomes, 1 h.

A value given as a limit tells only on which side of the number the result lay.

The term IC50 denotes the point on the concentration scale where inhibition reaches its midpoint. The term CC50 denotes the concentration at which the toxic effect on the cells reaches its halfway point. With `CN(C)CCOc1ccc2c(=O)c3c([nH]c2c1)CCCC3`, the Activity result in [1], in [3], in [5], in data set [10] and in data set [13] was “Non-toxic” each time. Moreover, the 50% inhibitory concentration (IC50) is greater than 2500 nM with Plasmodium falciparum [2]; greater than 20000 nM with Plasmodium cynomolgi [6]; greater than 2500 nM with Plasmodium falciparum [7]; greater than 20000 nM in the data set with Plasmodium cynomolgi [8]; greater than 20000 nM in the data set on Plasmodium cynomolgi [9]; greater than 20 µM with Plasmodium cynomolgi [11]. Also, the IC50 with Plasmodium falciparum [12] is greater than 2500 nM. Also, the CLH in [4] is greater than 500 µL/min/mg. Besides, the CC50 with Hepatocyte was greater than 20 µM.
`O=c1c2ccc(OCc3cccc(C(F)(F)F)c3)cc2[nH]c2ccc(Cl)c(F)c12`: the IC50 with Plasmodium falciparum [2] was 0.0004 nM; in the data set on HepG2, greater than 200 µM; with Plasmodium cynomolgi [6], 1530 nM; with Plasmodium falciparum [7] it was 0.0003 nM; with Plasmodium cynomolgi [8], 80 nM; with Plasmodium cynomolgi [9], 400 nM. The IC50 stood at 2.19 µM with Plasmodium cynomolgi [11] and 118 nM in the data set with Plasmodium falciparum [12]. Also, in [4], the CLH worked out at 15.6 µL/min/mg. The selectivity ratio at 96 h was greater than 250 in data set [14], greater than 50 in [15], greater than 9.13 in data set [16] and greater than 13.1 in data set [17]. Moreover, the half-maximal cytotoxic concentration (CC50) with Hepatocyte is greater than 20 µM. In data set [18], the t1/2 was greater than 60 min.
Turning to `COc1ccc(Oc2ccc3c(=O)c4c(F)cc(Cl)cc4[nH]c3c2)cc1`, the half-maximal inhibitory concentration (IC50) is 2.9e-05 nM with Plasmodium falciparum [2]; greater than 200 µM in the data set on HepG2; 940 nM with Plasmodium cynomolgi [6]; 5.9e-05 nM with Plasmodium falciparum [7]; 490 nM in the data set with Plasmodium cynomolgi [8]; 4490 nM in the data set with Plasmodium cynomolgi [9]. Also, the IC50 was 6.02 µM with Plasmodium cynomolgi [11] and 18.2 nM in the data set on Plasmodium falciparum [12]. In data set [4], the CLH is less than 3.125 µL/min/mg. The selectivity ratio at 96 h in data set [14] is 22; in [15], 2.4; in data set [16], 1.79; in data set [17] it was 11.5. In addition, the CC50 in the data set with Hepatocyte was found to be 10.8 µM. This compound had a t1/2 in data set [18] greater than 60 min.
Turning to `O=c1c2ccc(OCc3cccc(OC(F)(F)F)c3)cc2[nH]c2ccc(Cl)c(F)c12`, the half-inhibitory concentration (IC50) in the data set with Plasmodium falciparum [2] is 0.0004 nM; in the data set on HepG2 it was greater than 200 µM; in the data set on Plasmodium cynomolgi [6], 3260 nM; in the data set on Plasmodium falciparum [7], 0.00029 nM; in the data set on Plasmodium cynomolgi [8] it was 60 nM; with Plasmodium cynomolgi [9], 240 nM. Besides, the half-maximal inhibitory concentration (IC50) stood at 1.94 µM in the data set with Plasmodium cynomolgi [11] and 181 nM in the data set with Plasmodium falciparum [12]. In data set [4], this compound came in with a CLH of 21.8 µL/min/mg. In addition, the selectivity ratio at 96 h in data set [14] is greater than 333; in data set [15], greater than 83.3; in data set [16] it was greater than 10.3; in [17] it was greater than 6.13. Moreover, in the data set with Hepatocyte, the CC50 is greater than 20 µM. The t1/2 in data set [18] is on record as greater than 60 min.
As for `CCCN(CCC)CCNc1ccc2c(=O)c3c([nH]c2c1)CCCC3`, the Activity entry in [1], in data set [3], in [5], in data set [10] and in [13] was “Non-toxic” throughout. Also, the half-inhibitory concentration (IC50) was greater than 2500 nM in the data set with Plasmodium falciparum [2]; greater than 20000 nM in the data set with Plasmodium cynomolgi [6]; greater than 2500 nM with Plasmodium falciparum [7]; greater than 20000 nM with Plasmodium cynomolgi [8]; greater than 20000 nM with Plasmodium cynomolgi [9]; greater than 20 µM in the data set on Plasmodium cynomolgi [11]. Besides, in the data set with Plasmodium falciparum [12], the half-inhibitory concentration (IC50) is greater than 2500 nM. In data set [4], the CLH was greater than 500 µL/min/mg. For the same compound, the half-maximal cytotoxic concentration (CC50) in the data set on Hepatocyte is greater than 20 µM.
